Measurements published in PubChem BioAssay (NCI).
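A five-concentration, 48-hour dose response in 96-well plates underlies each endpoint, interpolated linearly between surrounding concentrations. The concentration for full growth arrest is given as TGI.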

Tests used:
Assay in all cases: NCI tumour cell line growth inhibition, 48 h
[1] = test system: UACC-257 melanoma
[2] = test system: IGROV1 ovarian
[3] = test system: EKVX NSCLC
[4] = test system: LOX IMVI melanoma
[5] = test system: MDA-MB-231 breast
[6] = test system: A549 NSCLC
[7] = test system: RXF 393 renal
[8] = test system: NCI/ADR-RES ovarian
[9] = test system: K-562 leukemia
[10] = test system: ACHN renal
[11] = test system: SW-620 colon
[12] = test system: SK-MEL-5 melanoma
[13] = test system: BT-549 breast
[14] = test system: NCI-H226 lung
[15] = test system: 786-0 renal
[16] = test system: OVCAR-8 ovarian
[17] = test system: UACC-62 melanoma
[18] = test system: CAKI-1 renal
[19] = test system: OVCAR-4 ovarian
[20] = test system: NCI-H522 lung
[21] = test system: T-47D breast
[22] = test system: SNB-75 CNS
[23] = test system: SK-MEL-28 melanoma
[24] = test system: MDA-N
[25] = test system: HCT-15 colon
[26] = test system: HT29 colon
[27] = test system: DU-145 prostate
[28] = test system: OVCAR-3 ovarian
[29] = test system: MOLT-4 leukemia
[30] = test system: SN12C renal
[31] = test system: TK-10 renal
[32] = test system: MDA-MB-435
[33] = test system: SK-MEL-2 melanoma
[34] = test system: NCI-H23 lung
[35] = test system: HL-60(TB) leukemia
[36] = test system: COLO 205 colon
[37] = test system: HCC-2998 colon
[38] = test system: MCF7 breast
[39] = test system: SF-539 CNS
[40] = test system: U251 CNS
[41] = test system: UO-31 renal
[42] = test system: PC-3 prostate
[43] = test system: SF-268 CNS
[44] = test system: NCI-H460 lung
[45] = test system: CCRF-CEM leukemia
[46] = test system: SF-295 CNS
[47] = test system: M14 melanoma
[48] = test system: OVCAR-5 ovarian
[49] = test system: HCT-116 colon
[50] = test system: SNB-19 CNS
[51] = test system: SK-OV-3 ovarian
[52] = test system: HOP-92 NSCLC
[53] = test system: RPMI-8226 leukemia
[54] = test system: HOP-62 NSCLC
[55] = test system: HS 578T breast
[56] = test system: KM12 colon
[57] = test system: A498 renal
[58] = test system: MALME-3M melanoma

O=C1c2ccccc2C(=Nc2ccc3ccccc3c2)C1(C1=C(c2ccccc2)C(=Nc2ccc3ccccc3c2)c2ccccc21)c1ccccc1 (stereo not given)
TGI [1]: > 100 µM | TGI [2]: > 100 µM | TGI [3]: > 100 µM | TGI [4]: > 100 µM | TGI [5]: > 100 µM | TGI [6]: > 100 µM | TGI [7]: > 100 µM | TGI [8]: > 100 µM | TGI [9]: > 43.5 µM | TGI [10]: 15 µM | TGI [11]: > 100 µM | TGI [12]: 7.47 µM | TGI [13]: 73.3 µM | TGI [14]: > 44.4 µM | TGI [15]: > 100 µM | TGI [16]: > 94.1 µM | TGI [17]: > 53.5 µM | TGI [18]: > 100 µM | TGI [19]: > 100 µM | TGI [20]: > 100 µM | TGI [21]: > 100 µM | TGI [22]: > 70.4 µM | TGI [23]: > 100 µM | TGI [24]: > 59.1 µM | TGI [25]: > 23.8 µM | TGI [26]: > 100 µM | TGI [27]: > 100 µM | TGI [28]: > 100 µM | TGI [29]: 7.81 µM | TGI [30]: > 100 µM | TGI [31]: > 100 µM | TGI [32]: > 87.3 µM | TGI [33]: > 69.5 µM | TGI [34]: > 31.3 µM | TGI [35]: > 29 µM | TGI [36]: > 100 µM | TGI [37]: > 63.4 µM | TGI [38]: > 65.6 µM | TGI [39]: > 100 µM | TGI [40]: > 100 µM | TGI [41]: 37 µM | TGI [42]: > 100 µM | TGI [43]: > 100 µM | TGI [44]: > 100 µM | TGI [45]: > 100 µM | TGI [46]: > 100 µM | TGI [47]: > 86.8 µM | TGI [48]: > 100 µM | TGI [49]: > 100 µM | TGI [50]: > 100 µM | TGI [51]: > 100 µM | TGI [52]: > 100 µM | TGI [53]: 18.2 µM | TGI [54]: > 100 µM | TGI [55]: > 100 µM | TGI [56]: > 42.6 µM

Cc1cc(-n2c(/C=C/c3ccc(Cl)cc3)nc3cc(Cl)ccc3c2=O)on1
TGI [1]: > 50 µM | TGI [2]: > 50 µM | TGI [57]: 11.5 µM | TGI [3]: > 50 µM | TGI [4]: > 50 µM | TGI [5]: 42.4 µM | TGI [6]: > 50 µM | TGI [8]: 39 µM | TGI [9]: > 50 µM | TGI [10]: 24.1 µM | TGI [11]: > 50 µM | TGI [12]: > 50 µM | TGI [13]: > 50 µM | TGI [14]: 33.2 µM | TGI [15]: 5.19 µM | TGI [16]: 47.7 µM | TGI [17]: > 50 µM | TGI [18]: > 50 µM | TGI [19]: 4.05 µM | TGI [20]: > 50 µM | TGI [21]: > 50 µM | TGI [23]: > 50 µM | TGI [24]: > 50 µM | TGI [25]: > 50 µM | TGI [26]: > 50 µM | TGI [27]: > 50 µM | TGI [28]: 30.9 µM | TGI [29]: > 50 µM | TGI [30]: > 50 µM | TGI [31]: > 50 µM | TGI [32]: > 50 µM | TGI [34]: > 50 µM | TGI [35]: > 50 µM | TGI [36]: > 50 µM | TGI [37]: > 50 µM | TGI [38]: > 50 µM | TGI [39]: > 50 µM | TGI [40]: 16.4 µM | TGI [41]: 19.7 µM | TGI [58]: > 50 µM | TGI [42]: > 50 µM | TGI [43]: > 50 µM | TGI [44]: 22 µM | TGI [45]: > 50 µM | TGI [46]: > 50 µM | TGI [47]: 32.9 µM | TGI [48]: > 50 µM | TGI [49]: 29.6 µM | TGI [50]: 26.6 µM | TGI [51]: 42.3 µM | TGI [52]: > 50 µM | TGI [54]: 18.3 µM | TGI [55]: 31.4 µM | TGI [56]: > 50 µM
